Measurements taken from patent US20240139188A1, “Arylamide Compounds For Treatment And Prevention Of Fungal Infections” (priority 2022, published 2024).
≈ marks a conversion by molar mass, not a printed value. Like-named read-outs stand apart in the source and are kept apart here. Numbered stars: 1 amine (or outer) side, 2 acyl side, 3 side chain; on linkers, the order of the positions; unused ones are H or OH. Bridge positions count the residues as written; N and C are the ends. Square brackets hold non-standard residues; d marks the D form. Peptide text beside a SMILES is read from it. * marks the point of attachment. hTyr(3S-OH,4S-OH,3'-OSO3H) = N[C@H](C(=O)O)[C@H](O)[C@@H](O)c1ccc(O)c(OS(=O)(=O)O)c1; Orn(4R-OH,5R-OH) = O=C([C@H](C[C@@H](O)[C@@H](O)N[*:3])N[*:1])[*:2]; Pro(3S-OH,4S-Me) = C[C@H]1CN[C@H](C(=O)O)[C@H]1O; X1 = CCCCCOc1ccc(-c2cc(-c3ccc(C(=O)*)cc3)no2)cc1; Gln(3R-OH) = NC(=O)C[C@@H](O)[C@H](N)C(=O)O; Hyp = O=C(O)[C@@H]1C[C@@H](O)CN1

Legend:
Mucorales Mucor species = assay: In vitro susceptibility (MIC), macrobroth dilution; format: cell-based; conditions: Mucor sp. 13-127, drug alone; for MIC50: lowest concentration causing 50% decrease in growth vs untreated control; for MIC100: lowest concentration without growth
A. fumigatus biofilms = assay: Biofilm assay (XTT); conditions: Aspergillus fumigatus, read-out: inhibition of biofilm formation
Experimental: Biofilm assay: To test the susceptibility of pre-formed A. fumigatus biofilms to
VOR, CAS and to the combination of CAS+BRI and VOR+BRI, a suspension containing 10^6 conidia per mL of the wild-type strain (Δku80 pyrG^+) was prepared in liquid MM and 100 μL of it was inoculated in each well of a 96-well plate. After 24 hours of incubation at 37° C., 50 μL of fresh MM containing CAS, VOR or the combination of VOR and CAS with BRI was added to the biofilm to reach the final concentration as indicated and incubated for a further 12 hours at 37° C. Wells containing untreated conidia were used as a positive control. After, the metabolic activity of the cells was evaluated by adding 50 μL of an aqueous XTT solution (1 mg/mL of XTT and 125 μM of menadione) to each well. The plate was incubated for additional 1 hour at 37° C., centrifuged (2000 rpm, 5 minutes) and 100 μL of the supernatant was transferred to a flat-bottomed 96-well plate. The absorbance was measured at 450 nm on a plate reader (Synergy HTX Multi-Mode Reader- BioTek Instruments). The XTT assay's were performed in six replicates.

[1] = system: A. fumigatus conidia infecting A549 pulmonary cells; assay: Killing assay in infected A549 cells; format: cell-based, Aspergillus fumigatus; conditions: monotherapy
Experimental: Killing assay: The type II pneumocyte cell line A549 was cultured using DMEM (ThermoFischer Scientific, Paisley. […] After 24 hours of incubation in 5% CO2 the culture media was removed, and 2 ml of sterile water was added to the wells. A P1000 tip was then used to scrape away the cell monolayer and the cell suspension was collected. This suspension was then diluted 1:1000 and 100 μl was plated on Sabouraud Dextrose Agar Media before the plates were incubated a 37° C. overnight. The numbers of CFUs were determined after 24 hours of growth. A volume of 50 μl of the inoculum adjusted to 103/ml was also plated on SAB agar to correct CFU counts. The CFU percentage for each sample was calculated and the results were plotted using Graphpad Prism (GraphPad Software, Inc., La Jolla, CA, USA).

A. fumigatus [2] = assay: MIC/MEC, CLSI M38-A2; format: cell-based, Aspergillus fumigatus; conditions: Aspergillus fumigatus, read-out: MIC VOR
[3] = system: A. fumigatus clinical isolates; assay: Growth inhibition of clinical isolates by CAS, VOR, BRI and combinations; conditions: strain CYP15-15-109, VOR
[4] = system: A549 human lung cancer cells; format: cell-based; conditions: 48 h, 10 %
Experimental: Cytotoxicity assay: Cytotoxicity assays in A549 human lung cancer cells were performed using XTT assay as indicated in the manufacturers' instructions. Cells (2×10^5 cells/well) were seeded in 96-well tissue plates and incubated in Dulbecco's Modified Eagle Medium (DMEM) culture medium. After 24 hours of incubation, the cells were treated with BRI (40 and 80 μM/well), CAS (50, 100 and 200 μg/well) or in different CAS+BRI combinations. After 48 hours incubation, the cell viability was assessed by using the XTT kit (Roche Applied Science) according to the manufacturer's instructions. Formazan formation was quantified spectrophotometrically at 450 nm (reference wavelength 620 nm) using a microplate reader. The experiment was made in three replicates. Viability was calculated using the background-corrected absorbance as follows: Cell viability (%)=absorbance value of experiment well/absorbance value of control well×100.

Cryptococcus neoformans = assay: In vitro susceptibility (MIC), macrobroth dilution; format: cell-based; conditions: C. neoformans CN9759, drug alone
A. fumigatus [5] = assay: Alamar blue metabolic activity assay; format: cell-based, Aspergillus fumigatus; conditions: for interaction with BRI in inhibition of metabolic activity (Alamar blue): increasing concentrations + BRI 20 μM, 48 hours
A. fumigatus [6] = assay: Protein kinase inhibitor (PKI) library screen with or without BRI; conditions: for growth, PKI (20 μM): PKI 20 μM alone; for growth, PKI (20 μM) + BRI (20 μM): PKI 20 μM together with BRI 20 μM
Experimental: A protein kinase inhibitors (PKI) library was also screened in combination with BRI. In total, 58 PKI were analyzed. Briefly, 100 μL of liquid MM containing 2.5×10^3 conidia/mL of the A. fumigatus wild-type strain plus 10% alamar blue was inoculated with increasing concentration of PKI (5-80 μM) in the presence (or not) of BRI (20μM) and incubated 48 hours at 37° C. without shaking. […] Plates were incubated for 48 hours at 37° C. without shaking. All experiments containing alamar blue were, after 48 hours incubation, read spectrophotometically by fluorescence and analyzed as previously described. Experiments were repeated at least three times.
To assess the mechanism of action of BRI, a collection of 58 protein kinase inhibitors (PKI, at a concentration of 20 μM; Table 4) was screened for A. fumigatus growth and corresponding metabolic activity alone or together with 20 μM BRI (Table 4).

Candida albicans = assay: In vitro susceptibility (MIC), macrobroth dilution; format: cell-based; conditions: C. albicans 5, drug alone
Aspergillus fumigatus = assay: In vitro susceptibility (MIC), macrobroth dilution; format: cell-based; conditions: drug alone; for MIC50: lowest concentration causing 50% decrease in growth vs untreated control; for MIC100: lowest concentration without growth
[7] = lowest concentration causing 50% decrease in growth vs untreated control
[8] = lowest concentration without growth

With C[C@@H]1[C@H](O)[C@@H](C)/C=C/C=C/C=C/C=C/C=C/C=C/C=C/[C@H](O[C@@H]2O[C@H](C)[C@@H](O)[C@H](N)[C@@H]2O)C[C@@H]2O[C@](O)(C[C@@H](O)C[C@@H](O)[C@H](O)CC[C@@H](O)C[C@@H](O)CC(=O)O[C@H]1C)C[C@H](O)[C@H]2C(=O)O [Amphotericin B (AMPB)] the MIC50 (Mucorales Mucor species) was 0.25 µg/mL (≈ 0.271 µM) and the MIC100 (Mucorales Mucor species) was 0.5 µg/mL (≈ 0.541 µM).

C[C@@H](c1ncncc1F)[C@](O)(Cn1cncn1)c1ccc(F)cc1F [VOR, voriconazole] showed an inhibition at 2 µg/mL (A. fumigatus biofilms) of about 10%, an inhibition at 4 µg/mL (A. fumigatus biofilms) of about 50% and an A. fumigatus killing [1] of about 60%. The MIC (A. fumigatus [2]; A. fumigatus VOR^R clinical isolate named in c0 of the row) was 8 µg/mL (≈ 22.9 µM), the MIC (A. fumigatus [2]; A. fumigatus WT (CEA17)) was 2 µg/mL (≈ 5.73 µM) and the growth inhibition [3] was “totally inhibited”.

For C[S+](C)[O-] [DMSO, dimethyl sulfoxide], the “reduction of cell viability” value [4] was 80%.

OC(Cn1cncn1)(Cn1cncn1)c1ccc(F)cc1F [Fluconazole (FLU)] showed an MIC50 (Cryptococcus neoformans; [7]) of 1 µg/mL (≈ 3.27 µM) and an MIC100 (Cryptococcus neoformans; [8]) of 1 µg/mL (≈ 3.27 µM).

CCn1c(=O)c(-c2ccc(Cl)cc2Cl)cc2cnc(Nc3ccc(N4CCNCC4)c(F)c3)nc21 [FRAX486] was tested, and the “effect on BRI activity (metabolic activity, Alamar blue)” value (A. fumigatus [5]) was “potentiating the BRI activity”, the “growth, PKI (20 μM)” value (A. fumigatus [6]) was “++ (++: growth ≥80% compared to no treatment)” and the “growth, PKI (20 μM) + BRI (20 μM)” value (A. fumigatus [6]) was “+ (+: growth ≤60% compared to no treatment)”.

Molecule CCCCCOc1ccc(-c2cc(-c3ccc(C(=O)N[C@H]4C[C@@H](O)[C@@H](O)NC(=O)[C@@H]5[C@@H](O)[C@@H](C)CN5C(=O)[C@H]([C@H](O)CC(N)=O)NC(=O)[C@H]([C@H](O)[C@@H](O)c5ccc(O)c(OS(=O)(=O)O)c5)NC(=O)[C@@H]5C[C@@H](O)CN5C(=O)[C@H]([C@@H](C)O)NC4=O)cc3)no2)cc1 [Micafungin (MICA)] (X1-[Orn(4R-OH,5R-OH)]T[Hyp][hTyr(3S-OH,4S-OH,3'-OSO3H)][Gln(3R-OH)][Pro(3S-OH,4S-Me)]; lactam 1-C) has an MIC50 (Mucorales Mucor species) of over 16 µg/mL, an MIC100 (Mucorales Mucor species) of over 16 µg/mL and an MIC50 (Candida albicans; [7]) of at most 0.03 µg/mL. For the same molecule, the MIC100 (Candida albicans; [8]) was 0.25 µg/mL (≈ 0.197 µM), the MIC50 (Aspergillus fumigatus; A. fumigatus 21-23) was at most 0.06 µg/mL and the MIC100 (Aspergillus fumigatus; A. fumigatus 21-23) was over 16 µg/mL.

calphostin C was tested, and the “interaction with BRI in inhibition of metabolic activity (Alamar blue)” value (A. fumigatus [5]) was “synergize”.

Work on CC[C@@H]([C@H](C)O)n1ncn(-c2ccc(N3CCN(c4ccc(OC[C@@H]5CO[C@@](Cn6cncn6)(c6ccc(F)cc6F)C5)cc4)CC3)cc2)c1=O [Posaconazole (POSA)] yielded an MIC50 (Mucorales Mucor species) of 1 µg/mL (≈ 1.43 µM) and an MIC100 (Mucorales Mucor species) of over 16 µg/mL.

Work on C[C@@H](c1ncncc1F)[C@](O)(Cn1cncn1)c1ccc(F)cc1F [Voriconazole (VOR)] yielded an MIC50 (Aspergillus fumigatus; A. fumigatus 10AF) of 0.125 µg/mL (≈ 0.358 µM) and an MIC100 (Aspergillus fumigatus; A. fumigatus 10AF) of 1 µg/mL (≈ 2.86 µM).

For COc1ccc2c(c[n+](C)c3c4cc5c(cc4ccc23)OCO5)c1OC [chelerenthrine], the “interaction with BRI in inhibition of metabolic activity (Alamar blue)” value (A. fumigatus [5]) was “synergize”.

With Nc1ncnc2c1c(-c1cnc3[nH]ccc3c1)nn2C1CCCC1 [PP121] the “effect on BRI activity (metabolic activity, Alamar blue)” value (A. fumigatus [5]) was “potentiating the BRI activity”, the “growth, PKI (20 μM)” value (A. fumigatus [6]) was “++ (++: growth ≥80% compared to no treatment)” and the “growth, PKI (20 μM) + BRI (20 μM)” value (A. fumigatus [6]) was “+ (+: growth ≤60% compared to no treatment)”.
